Source: ChEMBL document CHEMBL1201862, “PubChem BioAssay data set” (2004)
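Following 48 hours of exposure in 96-well plates, responses at five concentrations were used to interpolate endpoints linearly. GI50 = concentration required for 50% inhibition of growth.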 Activity calls are given as the source filed them. Rule as the data show it: active = GI50 up to about 1.1 µM and inactive = higher.

Experiments:
Assay in all cases: growth of human tumour cells (NCI), 48 h
HOP-62 = test system: HOP-62
DLD-1 = test system: DLD-1
786-0 = test system: 786-0
K562 = test system: K562
UACC-62 = test system: UACC-62
OVCAR-3 = test system: OVCAR-3
RPMI-8226 = test system: RPMI-8226
SNB-78 = test system: SNB-78
EKVX = test system: EKVX
SK-OV-3 = test system: SK-OV-3
SK-MEL-28 = test system: SK-MEL-28
OVCAR-8 = test system: OVCAR-8
SK-MEL-2 = test system: SK-MEL-2
LXFL 529 = test system: LXFL 529
SK-MEL-5 = test system: SK-MEL-5
IGROV-1 = test system: IGROV-1
TK-10 = test system: TK-10
HT-29 = test system: HT-29
SF-539 = test system: SF-539
SF-295 = test system: SF-295
SR = test system: SR
LOX IMVI = test system: LOX IMVI
M14 = test system: M14
DMS-114 = test system: DMS-114
DMS-273 = test system: DMS-273
NCI-H460 = test system: NCI-H460
CCRF-CEM = test system: CCRF-CEM
NCI-H23 = test system: NCI-H23
KM12 = test system: KM12
Malme-3M = test system: Malme-3M
CAKI-1 = test system: CAKI-1
NCI-H522 = test system: NCI-H522
MOLT-4 = test system: MOLT-4
U-251 = test system: U-251
UO-31 = test system: UO-31
UACC-257 = test system: UACC-257
HCT-116 = test system: HCT-116
KM-20L2 = test system: KM-20L2
SNB-19 = test system: SNB-19
SW-620 = test system: SW-620
HOP-92 = test system: HOP-92
A549 = test system: A549
HCT-15 = test system: HCT-15
M19-MEL = test system: M19-MEL
SF-268 = test system: SF-268
HOP-18 = test system: HOP-18
OVCAR-5 = test system: OVCAR-5
HL-60 = test system: HL-60
OVCAR-4 = test system: OVCAR-4
SN12C = test system: SN12C
HCC 2998 = test system: HCC 2998
SNB-75 = test system: SNB-75
NCI-H226 = test system: NCI-H226
A498 = test system: A498
ACHN = test system: ACHN
COLO 205 = test system: COLO 205
RXF 393 = test system: RXF 393

COc1ccc(C[C@H](N)C(=O)N2C[C@@H](CO)C[C@@H](n3cnc4c(N(C)C)ncnc43)C2)cc1
GI50 (HOP-62): > 100 µM (inactive) | GI50 (DLD-1): > 100 µM (inactive) | GI50 (786-0): > 100 µM (inactive) | GI50 (K562): > 100 µM (inactive) | GI50 (UACC-62): > 100 µM (inactive) | GI50 (OVCAR-3): > 100 µM (inactive) | GI50 (RPMI-8226): > 100 µM (inactive) | GI50 (SNB-78): > 100 µM (inactive) | GI50 (EKVX): > 100 µM (inactive) | GI50 (SK-OV-3): > 100 µM (inactive) | GI50 (SK-MEL-28): > 100 µM (inactive) | GI50 (OVCAR-8): > 100 µM (inactive) | GI50 (SK-MEL-2): > 100 µM (inactive) | GI50 (LXFL 529): > 100 µM (inactive) | GI50 (SK-MEL-5): > 100 µM (inactive) | GI50 (IGROV-1): > 100 µM (inactive) | GI50 (TK-10): > 100 µM (inactive) | GI50 (HT-29): > 100 µM (inactive) | GI50 (SF-539): > 100 µM (inactive) | GI50 (SF-295): > 100 µM (inactive) | GI50 (SR): > 100 µM (inactive) | GI50 (LOX IMVI): > 100 µM (inactive) | GI50 (M14): > 100 µM (inactive) | GI50 (DMS-114): > 100 µM (inactive) | GI50 (DMS-273): > 100 µM (inactive) | GI50 (NCI-H460): > 100 µM (inactive) | GI50 (CCRF-CEM): > 100 µM (inactive) | GI50 (NCI-H23): > 100 µM (inactive) | GI50 (KM12): > 100 µM (inactive) | GI50 (Malme-3M): > 100 µM (inactive) | GI50 (CAKI-1): > 100 µM (inactive) | GI50 (NCI-H522): > 100 µM (inactive) | GI50 (MOLT-4): > 100 µM (inactive) | GI50 (U-251): > 100 µM (inactive) | GI50 (UO-31): > 100 µM (inactive) | GI50 (UACC-257): > 100 µM (inactive) | GI50 (HCT-116): > 100 µM (inactive) | GI50 (KM-20L2): > 100 µM (inactive) | GI50 (SNB-19): > 100 µM (inactive) | GI50 (SW-620): > 100 µM (inactive) | GI50 (HOP-92): > 100 µM (inactive) | GI50 (A549): > 100 µM (inactive) | GI50 (HCT-15): > 100 µM | GI50 (M19-MEL): > 100 µM (inactive) | GI50 (SF-268): > 100 µM (inactive) | GI50 (HOP-18): > 100 µM (inactive) | GI50 (OVCAR-5): > 100 µM (inactive) | GI50 (HL-60): > 100 µM (inactive)

CCCCn1c2ccccc2c2ccc3c(c21)C(=O)C=CC3=O
GI50 (HOP-62): > 100 µM (inactive) | GI50 (DLD-1): > 100 µM (inactive) | GI50 (786-0): > 100 µM (inactive) | GI50 (OVCAR-4): > 100 µM (inactive) | GI50 (K562): 84.3 µM (inactive) | GI50 (SN12C): > 100 µM (inactive) | GI50 (UACC-62): > 100 µM (inactive) | GI50 (OVCAR-3): > 100 µM (inactive) | GI50 (RPMI-8226): > 100 µM (inactive) | GI50 (SNB-78): > 100 µM (inactive) | GI50 (HCC 2998): > 100 µM (inactive) | GI50 (SK-OV-3): > 100 µM (inactive) | GI50 (SK-MEL-28): > 100 µM (inactive) | GI50 (SNB-75): 0.0521 µM (active) | GI50 (OVCAR-8): > 100 µM (inactive) | GI50 (SK-MEL-2): > 100 µM (inactive) | GI50 (LXFL 529): > 100 µM (inactive) | GI50 (SK-MEL-5): > 100 µM (inactive) | GI50 (IGROV-1): > 100 µM (inactive) | GI50 (TK-10): > 100 µM (inactive) | GI50 (HT-29): 0.991 µM (active) | GI50 (SF-539): > 100 µM (inactive) | GI50 (SF-295): > 100 µM (inactive) | GI50 (SR): > 100 µM (inactive) | GI50 (LOX IMVI): > 100 µM (inactive) | GI50 (M14): > 100 µM (inactive) | GI50 (DMS-114): > 100 µM (inactive) | GI50 (DMS-273): > 100 µM (inactive) | GI50 (NCI-H460): > 100 µM (inactive) | GI50 (NCI-H23): > 100 µM (inactive) | GI50 (KM12): > 100 µM (inactive) | GI50 (Malme-3M): > 100 µM (inactive) | GI50 (NCI-H226): > 100 µM (inactive) | GI50 (CAKI-1): > 100 µM (inactive) | GI50 (NCI-H522): > 100 µM (inactive) | GI50 (MOLT-4): 54.8 µM (inactive) | GI50 (U-251): > 100 µM (inactive) | GI50 (A498): > 100 µM (inactive) | GI50 (UO-31): 62.2 µM (inactive) | GI50 (UACC-257): > 100 µM (inactive) | GI50 (ACHN): > 100 µM (inactive) | GI50 (HCT-116): > 100 µM (inactive) | GI50 (KM-20L2): > 100 µM (inactive) | GI50 (SNB-19): > 100 µM (inactive) | GI50 (SW-620): > 100 µM (inactive) | GI50 (HOP-92): > 100 µM (inactive) | GI50 (A549): > 100 µM (inactive) | GI50 (COLO 205): > 100 µM (inactive) | GI50 (HCT-15): > 100 µM | GI50 (M19-MEL): 0.185 µM (active) | GI50 (SF-268): > 100 µM (inactive) | GI50 (HOP-18): > 100 µM (inactive) | GI50 (OVCAR-5): > 100 µM (inactive)

COc1cc2c(c3c1C=CCO3)C(=O)c1ccccc1C2=O
GI50 (HOP-62): 41.3 µM (inactive) | GI50 (DLD-1): 24.2 µM (inactive) | GI50 (786-0): 57.7 µM (inactive) | GI50 (K562): 32.3 µM (inactive) | GI50 (SN12C): 43.9 µM (inactive) | GI50 (UACC-62): 47.4 µM (inactive) | GI50 (OVCAR-3): 42.8 µM (inactive) | GI50 (RPMI-8226): 32.8 µM (inactive) | GI50 (SNB-78): > 100 µM (inactive) | GI50 (HCC 2998): 50.2 µM (inactive) | GI50 (EKVX): > 100 µM (inactive) | GI50 (SK-OV-3): > 100 µM (inactive) | GI50 (SK-MEL-28): > 100 µM (inactive) | GI50 (SNB-75): 51.1 µM (inactive) | GI50 (RXF 393): > 100 µM (inactive) | GI50 (OVCAR-8): 40.8 µM (inactive) | GI50 (SK-MEL-2): > 100 µM (inactive) | GI50 (LXFL 529): 31.2 µM (inactive) | GI50 (SK-MEL-5): 24.7 µM (inactive) | GI50 (IGROV-1): 26.8 µM (inactive) | GI50 (TK-10): 50.4 µM (inactive) | GI50 (HT-29): 70.1 µM (inactive) | GI50 (SF-539): 36.1 µM (inactive) | GI50 (SF-295): > 100 µM (inactive) | GI50 (SR): 28 µM (inactive) | GI50 (LOX IMVI): 28.6 µM (inactive) | GI50 (M14): 82 µM (inactive) | GI50 (DMS-114): 53.1 µM (inactive) | GI50 (DMS-273): 49.1 µM (inactive) | GI50 (NCI-H460): 39.8 µM (inactive) | GI50 (CCRF-CEM): 22 µM (inactive) | GI50 (NCI-H23): > 100 µM (inactive) | GI50 (KM12): 30.3 µM (inactive) | GI50 (Malme-3M): > 100 µM (inactive) | GI50 (NCI-H226): 32.2 µM (inactive) | GI50 (NCI-H522): 29.7 µM (inactive) | GI50 (MOLT-4): 23.6 µM (inactive) | GI50 (U-251): 30.8 µM (inactive) | GI50 (UO-31): 29.5 µM (inactive) | GI50 (UACC-257): 25.3 µM (inactive) | GI50 (ACHN): 34.2 µM (inactive) | GI50 (HCT-116): 33.3 µM (inactive) | GI50 (KM-20L2): 59.4 µM (inactive) | GI50 (SNB-19): 45.3 µM (inactive) | GI50 (SW-620): 30.4 µM (inactive) | GI50 (HOP-92): > 100 µM (inactive) | GI50 (A549): 38.5 µM (inactive) | GI50 (COLO 205): 19.6 µM (inactive) | GI50 (HCT-15): 29.6 µM | GI50 (M19-MEL): 76.6 µM (inactive) | GI50 (SF-268): 47.6 µM (inactive) | GI50 (HOP-18): 83.8 µM (inactive) | GI50 (OVCAR-5): > 100 µM (inactive) | GI50 (HL-60): 19.3 µM (inactive)
